According to US20190307908A1, “NANOEMULSION AGENTS FOR ULTRASOUND DIAGNOSTIC AND THERAPY” (University of Washington, priority 2018, published 2019):

Columns and labels:
[1] = maximum PFC dissolved in ethanol; format: physicochemical; conditions: in ethanol (co-solvent)
Procedure: PFC ouzo droplets were synthesized by first dissolving a PFC into ethanol (co-solvent). A maximum of approximately 2.0% perfluorohexane (C6F14, TBoiling=56° C.), 2.3% perfluoropentane (C5F12, TBoiling=29° C.), 2.5% perfluorobutane (C4F10, TBoiling=2° C.), and 2.7% perfluoropropane ([…], TBoiling=−37° C.) by volume could be dissolved in ethanol. In the ethanol phase, a 20:1 mole ratio of dipalmitoylphosphatidylcholine (DPPC) and N-(Methylpolyoxyethylene oxycarbonyl)-1,2-distearoyl-sn-glycero-3-phosphoethanolamine sodium salt (DSPE-PEG 2K) lipids were also dissolved. The total lipid concentration was varied from 0.10 mg/ml to 1.82 mg/ml depending on the volume of perfluorocarbon that was used. […] However, lower concentration lipids solutions were not used to ensure ample lipids were in solution to stabilize the droplet interface. […] When an aqueous solution (solvent) prepared at a ratio of 7:2:1 water/propylene glycol/glycerol is added to the PFC/ethanol solution, the PFC oil phase quickly loses solubility resulting in the spontaneous nucleation of stable droplets (FIG. 2). Since PFCs are known to have very poor solubility in water, the greater the water content relative to ethanol, the lower the PFC solubility is in the final mixed solvent. The inclusion of glycerol and propylene glycol is optional for droplet nucleation. For example, PFC emulsions can also be generated in the absence of any stabilizer (FIGS. 8 and 9). However, glycerol and propylene glycol are commonly used along with lipid mixtures to improve microbubble stability. Here, glycerol and propylene glycol were also included in the ouzo droplet formulation to make the agent composition analogous to microbubbles and to increase stability.
The lipid-ethanol stock solution was then divided as needed. Using a stir plate, PFCs were then dissolved in the lipid-ethanol solution until it was fully saturated. For liquid PFCs (i.e. PFH and PFP), the PFC oil was incrementally added to the stirred ethanol solution until a small droplet of PFC formed in solution. The solution was then removed from the stir plate and allowed to rest at room temperature for approximately 20 minutes, enabling excess PFC to fall to the bottom of the container. For gaseous PFCs (i.e. PFB and OFP), PFC gas was bubbled into a sealed glass vial with the ethanol solution at a pressure of 1.5-2.0 PSI while on ice. It was bubbled through for a minimum of 2 minutes and purged 3 times to ensure the headspace was filled with gaseous PFC. Then, the PFC-lipid-ethanol solution was pipetted into a clean glass vial and diluted as needed using additional lipid-ethanol solution to achieve the desired PFC in ethanol saturation percentage. […]

rat spinal cord = assay: ultrasound contrast imaging in a rat spinal cord model; format: in vivo, Sprague-Dawley rat; conditions: bolus via tail vein, 15 MHz linear array, harmonic imaging
Procedure: Ouzo-synthesized droplets were used as an ultrasound contrast agent in a rat spinal cord model (FIGS. 7A-7D). Surgical procedures were performed according to approved institutional animal care and use committee (IACUC) protocol following all appropriate guidelines from the university's Animal Welfare Assurance (A3464-01) as well as the NIH Office of Laboratory Animal Welfare (OLAW). A laminectomy was performed to remove the top surface of spine vertebrae, exposing the spinal cord. A bolus injection of perfluorobutane droplets ([…]) with a mean diameter of 182 nm was administered via tail vein and imaged using a 15 MHz linear array ultrasound transducer. […] Harmonic imaging was necessary to suppress intrinsic linear signals from this tissue model and to highlight the non-linear signals that are generated from bubble oscillations.
Surgical procedures were performed according to approved institutional animal care and use committee (IACUC) protocol following all appropriate guidelines from the university's Animal Welfare Assurance (A3464-01) as well as the NIH Office of Laboratory Animal Welfare (OLAW). A 0.2 ml bolus injection of perfluorobutane droplets diluted to approximately 10^6 droplet/ml was injected via tail vein in an anesthetized female Sprague-Dawley rat. An ultrasound imaging window was made by performing a laminectomy to expose the spinal cord between T6 and T10. […]

Structure (SMILES)	maximum that could be dissolved in ethanol [1]	ultrasound contrast enhancement after injection (rat spinal cord)
FC(F)(F)C(F)(F)C(F)(F)C(F)(F)C(F)(F)F [perfluoropentane]	~2.3 % by volume	nearly zero contrast enhancement
FC(F)(F)C(F)(F)C(F)(F)C(F)(F)C(F)(F)C(F)(F)F [perfluorohexane]	approximately 2.0 % by volume	nearly zero contrast enhancement
FC(F)(F)C(F)(F)C(F)(F)C(F)(F)F [perfluorobutane]	~2.5 % by volume	–
FC(F)(F)C(F)(F)C(F)(F)F [perfluoropropane]	~2.7 % by volume	–
